From patent US6596749B2, “Aminotriazole compounds” (Les Laboratoires Servier, priority 1999, dated 2003)

How the values were obtained:
obese ob/ob mouse = assay: Effect on food intake and weight development in the obese mouse; type: in vivo; details: female ob/ob C57B1/6J mice; for Food intake % variation (D1), Treated: D1, compared with the basal food intake; for Body weight % variation (D4/D0): between first and last day of treatment
Method: The compounds of the invention were administered in vivo to the obese ob/ob mouse in order to evaluate their influence on food intake and weight development. The animals used are 13- to 18-week-old female ob/ob C57B1/6J mice. They are divided into groups each comprising 4 animals per cage, the cages being fitted with a grating floor, and the mice having free access to food.
Before the experiments, the animals are conditioned for a period ranging from 2 to 3 weeks until their food consumption has stabilised. The experiments may be summarised as follows:
The test compounds are dissolved, immediately before use, in water, 0.9% sodium chloride, propylene glycol or dimethyl sulphoxide, depending upon their solubility, and are administered intraperitoneally (IP), in a volume of 2.5 ml/kg.
The parameters measured are the food intake and the body weight.
The results are expressed as: […]
percentage variation in food intake under treatment compared with the basal food intake;
percentage variation in body weight between the first and last day of treatment.

Y5 receptor = target: T1, Y5 receptor (Homo sapiens, UniProt Q15761); assay: In vitro affinity for NPY receptors, [125I]-PYY competition binding, Y5 receptor; details: radioligand [125I]-PYY 15 to 65 pM
T1 sequence (Q15761 1-445): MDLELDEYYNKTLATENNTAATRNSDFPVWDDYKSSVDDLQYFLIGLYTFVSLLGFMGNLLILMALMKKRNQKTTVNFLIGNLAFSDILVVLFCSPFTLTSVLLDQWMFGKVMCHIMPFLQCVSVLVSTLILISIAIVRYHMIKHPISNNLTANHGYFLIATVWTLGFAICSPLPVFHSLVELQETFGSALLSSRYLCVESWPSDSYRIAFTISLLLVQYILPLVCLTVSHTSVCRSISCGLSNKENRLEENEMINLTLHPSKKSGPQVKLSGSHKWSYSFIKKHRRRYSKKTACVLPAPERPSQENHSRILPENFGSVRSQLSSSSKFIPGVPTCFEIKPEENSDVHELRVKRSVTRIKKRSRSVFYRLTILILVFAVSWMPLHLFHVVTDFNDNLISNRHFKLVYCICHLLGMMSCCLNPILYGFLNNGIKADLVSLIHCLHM
Method: The capacity of the compounds of the invention to bind to NPY receptors was measured on various cell lines, each expressing one of the receptor sub-types studied. Competition binding experiments were carried out using the peptide [^125I]-PYY as radioligand at concentrations ranging from 15 to 65 pM. The non-specific fraction is measured in the presence of a concentration of 1 μM NPY. The cells are incubated for a period ranging from 1 to 2 hours depending upon the lines, and the radioactivity is collected after filtration over a GF/C filter treated with 0.1% PEI, before being measured.

| Structure (SMILES) | Food intake % variation (D1), Treated (obese ob/ob mouse; 5 mg/kg IP twice daily) [%] | Body weight % variation (D4/D0) (obese ob/ob mouse; 5 mg/kg IP twice daily) [%] | IC50 (Y5 receptor) [nM] | Food intake % variation (D1), Treated (obese ob/ob mouse; 1 mg/kg IP twice daily) [%] | Body weight % variation (D4/D0) (obese ob/ob mouse; 1 mg/kg IP twice daily) [%] |
| --- | --- | --- | --- | --- | --- |
| COc1ccc(S(=O)(=O)NNC(=O)c2ccc(Nc3nc(-c4ccccc4)n(-c4cccc(C(F)(F)F)c4)n3)cc2)cc1 [Example 6] | −34 | −11.2 | 7 |  |  |
| O=C(NNS(=O)(=O)c1ccccc1)c1ccc(Nc2nc(-c3ccccc3)n(-c3cccc(C(F)(F)F)c3)n2)cc1 [Example 1, N′-[4-({5-Phenyl-1-[3-(trifluoromethyl)phenyl]-1H-1,2,4-triazol-3-yl}-amino)benzoyl]benzenesulphonohydrazide] |  |  | 80 | −45 | −6.4 |
